Like-named read-outs stand apart in the source and are kept apart here.
Key:
[1] = test system: Sephadex-included lung edema; assay: Sephadex-induced lung edema in rats (anti-inflammatory effect), glucocorticoid in liposomes instilled into left lung lobe; type: in vivo, Sprague Dawley rats; conditions: for inhibition in vivo at 3.35 µmol/kg / inhibition in vivo at 0.335 µmol/kg / inhibition in vivo at 0.0335 µmol/kg / inhibition in vivo at 0.1 µmol/kg: Rattus norvegicus; for inhibition in vivo at 3.35 µmol/kg: 3350 nmol/kg instilled in left lung lobe; for reduction of edema in left lung / protection of left lung / block of left lung edema (in words) / activity in the other lung half (in words): summary of Table 1; for reduction of edema in left lung / protection of left lung / block of left lung edema (in words): locally treated left lung; for activity in the other lung half (in words): right lung compared with left; for inhibition in vivo at 0.0335 µmol/kg: 33.5 nmol/kg instilled in left lung lobe; for inhibition in vivo at 0.1 µmol/kg: 100 nmol/kg instilled in left lung lobe
Description: (§1) Intratracheal instillation of Sephadex beads into rats leads to bronchial and also to alveolar inflammation. This provokes interstitial lung edema, which increases the lung weight, and the inflammation can be graded as the increase of the lung weight compared to a saline-instilled control group. The lung edema formation can be counteracted by pretreatment with glucocorticoids, preferably by local administration as intratracheal instillation or as inhalation. Ideally an anti-inflammatory action should be obtained only at the site of glucocorticoid application in the lung, but not in the rest of the body as this in long term treatment can lead to therapy limiting systemic side effects.
The differentiation between glucocorticoid actions in the treated lung region and outside this area can be tested in the following way.
(§2) Sprague Dawley rats (225 g) were slightly anaesthetized with ether and the glucocorticoid test preparation (in liposomes suspended in saline) in a volume of 0.5 ml/kg was instilled into just the left lung lobe. Two h later a suspension of Sephadex (5 mg/kg in a volume of […] was instilled in the trachea well above the bifurcation so that the suspension reached both the left and right lung lobes. Twenty h later the rats were killed and the left and right lung lobes dissected out and weighed separately. Also the spleen weight and the body weight gain over the 20 h were determined. Control groups got vehicle instead of glucocorticoid preparation and saline instead of Sephadex suspension to determine the weight of non-drug treated Sephadex edema and the normal lung weight as well as the normal spleen weight and body weight gain.
As stated above an ideal glucocorticoid preparation should have a very high glucocorticoid activity at the site of application in lung, but with low activity outside this area. Therefore, in the selected model an optimal preparation should more or less completely block the edema in the locally pretreated left lung lobe, but have much less activity in the right lung half and no significant inhibitory action on the spleen weight and the body weight gain. […] In the test protocol used, doses were selected leading to a more or less complete block of the edema in the left lung and at these dose levels the extent of the other activities was estimated. At the selected dose 7-9 rats were tested in parallel.

[2] = Spleen weight and body weight gain in the Sephadex lung edema test (systemic glucocorticoid action); type: in vivo, Sprague Dawley rats; parameters: Body weight gain in rel. to control: unit not given here; conditions: for Body weight gain in rel. to control: over 20 h; for % inhib. compared to control group, spleen: spleen weight, 20 h after Sephadex; for reduction of body weight gain (in words) / reduction of spleen (in words): summary of Table 1
Description: as §1, §2
As stated above an ideal glucocorticoid preparation should have a very high glucocorticoid activity at the site of application in lung, but with low activity outside this area. Therefore, in the selected model an optimal preparation should more or less completely block the edema in the locally pretreated left lung lobe, but have much less activity in the right lung half and no significant inhibitory action on the spleen weight and the body weight gain. It has been considered more important to search for a high degree of separation between the local activity (exemplified with the left lung) to the other activities than to search for a high absolute potency (high activity per mg drug) for the action in the left lung. In the test protocol used, doses were selected leading to a more or less complete block of the edema in the left lung and at these dose levels the extent of the other activities was estimated. At the selected dose 7-9 rats were tested in parallel. Mean±s.e.m. was calculated and compared with Student's t-test to the results of the corresponding Sephadex control group.

[3] = liposomes in saline, 2 h before Sephadex, 20 h readout, locally treated lobe, read-out: % inhib. compared to control group, left lobe
[4] = liposomes in saline, 2 h before Sephadex, 20 h readout, untreated lobe, read-out: % inhib. compared to control group, right lobe
[5] = 3350 nmol/kg instilled in left lung lobe, NS = not significant
[6] = 20 h, read-out: % inhib. compared to control group, left lobe
[7] = 20 h, read-out: % inhib. compared to control group, right lobe
[8] = 335 nmol/kg instilled in left lung lobe, NS = not significant
[9] = 335 nmol/kg instilled in left lung lobe, liposomes in saline, 2 h before Sephadex, 20 h readout, locally treated lobe, read-out: % inhib. compared to control group, left lobe
[10] = 335 nmol/kg instilled in left lung lobe, liposomes in saline, 2 h before Sephadex, 20 h readout, untreated lobe, read-out: % inhib. compared to control group, right lobe
[11] = 33.5 nmol/kg instilled in left lung lobe, NS = not significant
[12] = 100 nmol/kg instilled in left lung lobe

CCCCCCCCCCCCCCCC(=O)OCC(=O)[C@@]1(OC(=O)CC)[C@@H](C)C[C@H]2[C@@H]3CCC4=CC(=O)C=C[C@]4(C)[C@@]3(Cl)[C@@H](O)C[C@@]21C [Beclomethasone-21-palmitate-17-propionate]
inhibition in vivo at 3.35 µmol/kg [1, 3]: 87%
inhibition in vivo at 3.35 µmol/kg [1, 4]: 47%
reduction of edema in left lung / protection of left lung [1]: 87%
Body weight gain in rel. to control [2, 5]: -3.1
% inhib. compared to control group, spleen [2, 5]: 5%

CCCCCCCCCCCCCCCC(=O)OCC(=O)[C@@]1(O)[C@@H](C)C[C@H]2[C@@H]3CCC4=CC(=O)C=C[C@]4(C)[C@@]3(F)[C@@H](O)C[C@@]21C [Betamethasone-21-palmitate]
inhibition in vivo at 0.335 µmol/kg [1, 6]: 109%
inhibition in vivo at 0.335 µmol/kg [1, 7]: -5%
Body weight gain in rel. to control [2, 8]: 0.2
% inhib. compared to control group, spleen [2, 8]: 7%

CCCCCCCCCCCCCCCC(=O)OCC(=O)[C@@]12OC(CCC)O[C@@H]1C[C@H]1[C@@H]3CCC4=CC(=O)C=C[C@]4(C)[C@H]3[C@@H](O)C[C@@]12C (some centres unmarked) [Budesonide-21-palmitate]
inhibition in vivo at 0.335 µmol/kg [1, 9]: 100%
inhibition in vivo at 0.335 µmol/kg [1, 10]: 37%
Body weight gain in rel. to control [2, 8]: -1.4
% inhib. compared to control group, spleen [2, 8]: 4%

CCCCC(=O)OCC(=O)[C@@]12OC(CCC)O[C@@H]1C[C@H]1[C@@H]3CCC4=CC(=O)C=C[C@]4(C)[C@H]3[C@@H](O)C[C@@]12C (some centres unmarked) [Budesonide-21-valerate]
inhibition in vivo at 0.335 µmol/kg [1, 9]: 21%
inhibition in vivo at 0.335 µmol/kg [1, 10]: 22%
reduction of edema in left lung / protection of left lung [1]: up to 38%
Body weight gain in rel. to control [2, 8]: -0.8
% inhib. compared to control group, spleen [2, 8]: -1%

CCCC1O[C@@H]2C[C@H]3[C@@H]4CCC5=CC(=O)C=C[C@]5(C)[C@H]4[C@@H](O)C[C@]3(C)[C@]2(C(=O)CO)O1 (some centres unmarked) [Budesonide]
inhibition in vivo at 0.335 µmol/kg [1, 9]: 38%
inhibition in vivo at 0.335 µmol/kg [1, 10]: 30%
reduction of edema in left lung / protection of left lung [1]: up to 38%
Body weight gain in rel. to control [2, 8]: 1.6

CCCCCCCCCCCCCCCC(=O)OCC(=O)[C@@]1(OC(=O)CC)[C@H](C)C[C@H]2[C@@H]3CCC4=CC(=O)C=C[C@]4(C)[C@@]3(F)[C@@H](O)C[C@@]21C [Dexamethasone-21-palmitate-17-propionate]
inhibition in vivo at 0.335 µmol/kg [1, 9]: 104%
inhibition in vivo at 0.335 µmol/kg [1, 10]: 44%
Body weight gain in rel. to control [2, 8]: 1.0
% inhib. compared to control group, spleen [2, 8]: 3%

CCCCCCCCCCCCCCCC(=O)OCC(=O)[C@@]1(O)[C@H](C)C[C@H]2[C@@H]3CCC4=CC(=O)C=C[C@]4(C)[C@@]3(F)[C@@H](O)C[C@@]21C [Dexamethasone-21-palmitate]
inhibition in vivo at 0.335 µmol/kg [1, 6]: 127%
inhibition in vivo at 0.335 µmol/kg [1, 7]: 109%
block of left lung edema (in words) [1]: completely blocked the left lung edema
activity in the other lung half (in words) [1]: as high activity in the other lung half
Body weight gain in rel. to control [2, 8]: -10.8
reduction of body weight gain (in words) [2]: significant reduction of body weight gain
reduction of spleen (in words) [2]: significant reduction of body weight gain and to spleen

CCCCCCCCCCCCCCCC(=O)OCC(=O)[C@@]1(OC(=O)CC)[C@H](C)C[C@H]2[C@@H]3C[C@H](F)C4=CC(=O)C=C[C@]4(C)[C@@]3(F)[C@@H](O)C[C@@]21C [Flumethasone-21-palmitate-17-propionate]
inhibition in vivo at 0.0335 µmol/kg [1, 3]: 108%
inhibition in vivo at 0.0335 µmol/kg [1, 4]: 43%
Body weight gain in rel. to control [2, 11]: 2.0
% inhib. compared to control group, spleen [2, 11]: -1%

CCCCCCCCCCCCCCCC(=O)OCC(=O)[C@@]12OC(C)(C)O[C@@H]1C[C@H]1[C@@H]3C[C@H](F)C4=CC(=O)C=C[C@]4(C)[C@H]3[C@@H](O)C[C@@]12C [Flunisolide-21-palmitate]
inhibition in vivo at 0.0335 µmol/kg [1, 3]: 133%
inhibition in vivo at 0.0335 µmol/kg [1, 4]: 44%
Body weight gain in rel. to control [2, 11]: -2.6
% inhib. compared to control group, spleen [2, 11]: 8%

CCCCCCCCCCCCCCCC(=O)OCC(=O)[C@@]12OC(C)(C)O[C@@H]1C[C@H]1[C@@H]3C[C@H](F)C4=CC(=O)C=C[C@]4(C)[C@@]3(F)[C@@H](O)C[C@@]12C [Fluocinolone acetonide-21-palmitate]
inhibition in vivo at 0.1 µmol/kg [1, 3]: 117%
inhibition in vivo at 0.1 µmol/kg [1, 4]: 95%
block of left lung edema (in words) [1]: completely blocked the left lung edema
activity in the other lung half (in words) [1]: as high activity in the other lung half
Body weight gain in rel. to control [2, 12]: -4.8
% inhib. compared to control group, spleen [2, 12]: 15%
reduction of body weight gain (in words) [2]: significant reduction of body weight gain
reduction of spleen (in words) [2]: significant reduction of body weight gain and to spleen

CCCCCCCCCCCCCCCC(=O)OCC(=O)[C@@]1(O)CC[C@H]2[C@@H]3CCC4=CC(=O)CC[C@]4(C)[C@H]3[C@@H](O)C[C@@]21C [Hydrocortisone-21-palmitate]
inhibition in vivo at 0.335 µmol/kg [1, 9]: -13%
inhibition in vivo at 0.335 µmol/kg [1, 10]: -7%
reduction of edema in left lung / protection of left lung [1]: up to 38%
Body weight gain in rel. to control [2, 8]: -1
